Experimental data as given in ChEMBL document CHEMBL4145553, “Design, synthesis, and biological evaluation of novel amide and hydrazide based thioether analogs targeting Histone deacteylase (HDAC) enzymes” (Eur J Med Chem, 2018).
Calls of active or inactive are those of the source. The rule behind the calls is not given here.

What was measured:
SNB-19 = test: Growth inhibition of human SNB19 cells incubated for 48 hrs by sulforhodamine B assay; format: functional; settings: SNB-19, 48 h
T47D [1] = test: Growth inhibition of human T47D cells assessed as cell growth at 10^-7 M incubated for 48 hrs by sulforhodamine B assay relative to control; format: functional; settings: read-out: Activity
MDA-MB-435 [2] = test: Induction of apoptosis in human MDA-MB-435 cells assessed as increase in caspase-9 expression by qRT-PCR method; format: functional, cell-based
NCI-H460 = test: Growth inhibition of human NCI-H460 cells assessed as cell growth at 10^-7 M incubated for 48 hrs by sulforhodamine B assay relative to control; format: functional; settings: NCI-H460, 48 h, read-out: Activity
UO-31 [3] = test: Growth inhibition of human UO31 cells assessed as cell growth at 10^-7 M incubated for 48 hrs by sulforhodamine B assay relative to control; format: functional; settings: UO-31, 48 h, read-out: Activity
KM12 [4] = test: Growth inhibition of human KM12 cells assessed as cell growth at 10^-4 M incubated for 48 hrs by sulforhodamine B assay relative to control; format: functional; settings: KM12, 48 h, read-out: Activity
T47D [5] = test: Growth inhibition of human T47D cells assessed as cell growth at 10^-6 M incubated for 48 hrs by sulforhodamine B assay relative to control; format: functional; settings: read-out: Activity
MDA-MB-468 = test: Growth inhibition of human MDA-MB-468 cells assessed as cell growth at 10^-5 M incubated for 48 hrs by sulforhodamine B assay relative to control; format: functional; settings: MDA-MB-468, 48 h, read-out: Activity
SN12C [6] = test: Growth inhibition of human SN12C cells assessed as cell growth at 10^-8 M incubated for 48 hrs by sulforhodamine B assay relative to control; format: functional; settings: read-out: Activity
RPMI-8226 = test: Growth inhibition of human RPMI8226 cells assessed as cell growth at 10^-5 M incubated for 48 hrs by sulforhodamine B assay relative to control; format: functional; settings: RPMI-8226, 48 h, read-out: Activity
786-0 = test: Growth inhibition of human 786-0 cells assessed as cell growth at 10^-8 M incubated for 48 hrs by sulforhodamine B assay relative to control; format: functional; settings: 786-0, 48 h, read-out: Activity
U-251 = test: Growth inhibition of human U251 cells assessed as cell growth at 10^-6 M incubated for 48 hrs by sulforhodamine B assay relative to control; format: functional; settings: U-251, 48 h, read-out: Activity
CAKI-1 [7] = test: Growth inhibition of human Caki1 cells assessed as cell growth at 10^-4 M incubated for 48 hrs by sulforhodamine B assay relative to control; format: functional; settings: CAKI-1, 48 h, read-out: Activity
NCI-H522 = test: Growth inhibition of human NCI-H522 cells assessed as cell growth at 10^-6 M incubated for 48 hrs by sulforhodamine B assay relative to control; format: functional; settings: NCI-H522, 48 h, read-out: Activity
OVCAR-8 = test: Growth inhibition of human OVCAR8 cells assessed as cell growth at 10^-4 M incubated for 48 hrs by sulforhodamine B assay relative to control; format: functional; settings: OVCAR-8, 48 h, read-out: Activity
A549 = test: Growth inhibition of human A549/ATCC cells assessed as cell growth at 10^-8 M incubated for 48 hrs by sulforhodamine B assay relative to control; format: functional; settings: A549, 48 h, read-out: Activity
MDA-MB-435 [8] = test: Induction of apoptosis in human MDA-MB-435 cells assessed as live cells by propidium iodide/Annexin V staining based flow cytometry (reference value: 97.4%); format: functional
EKVX = test: Growth inhibition of human EKVX cells assessed as cell growth at 10^-5 M incubated for 48 hrs by sulforhodamine B assay relative to control; format: functional; settings: read-out: Activity
NCI-H322M = test: Growth inhibition of human NCI-H322M cells assessed as cell growth at 10^-5 M incubated for 48 hrs by sulforhodamine B assay relative to control; format: functional; settings: read-out: Activity
SF-539 = test: Growth inhibition of human SF539 cells assessed as cell growth at 10^-8 M incubated for 48 hrs by sulforhodamine B assay relative to control; format: functional; settings: SF-539, 48 h, read-out: Activity
SNB-75 = test: Growth inhibition of human SNB75 cells assessed as cell growth at 10^-7 M incubated for 48 hrs by sulforhodamine B assay relative to control; format: functional; settings: SNB-75, 48 h, read-out: Activity
HCT-15 = test: Growth inhibition of human HCT15 cells assessed as cell growth at 10^-4 M incubated for 48 hrs by sulforhodamine B assay relative to control; format: functional; settings: HCT-15, 48 h, read-out: Activity
CAKI-1 [9] = test: Growth inhibition of human Caki1 cells assessed as cell growth at 10^-7 M incubated for 48 hrs by sulforhodamine B assay relative to control; format: functional; settings: CAKI-1, 48 h, read-out: Activity
MCF7 = test: Growth inhibition of human MCF7 cells incubated for 48 hrs by sulforhodamine B assay; format: functional; settings: MCF7, 48 h
HCC 2998 = test: Growth inhibition of human HCC2998 cells incubated for 48 hrs by sulforhodamine B assay; format: functional; settings: HCC 2998, 48 h
RXF 393 = test: Growth inhibition of human RXF393 cells assessed as cell growth at 10^-7 M incubated for 48 hrs by sulforhodamine B assay relative to control; format: functional; settings: RXF 393, 48 h, read-out: Activity
SN12C [10] = test: Growth inhibition of human SN12C cells assessed as cell growth at 10^-7 M incubated for 48 hrs by sulforhodamine B assay relative to control; format: functional; settings: read-out: Activity
SN12C [11] = test: Growth inhibition of human SN12C cells incubated for 48 hrs by sulforhodamine B assay; format: functional
KM12 [12] = test: Growth inhibition of human KM12 cells assessed as cell growth at 10^-5 M incubated for 48 hrs by sulforhodamine B assay relative to control; format: functional; settings: KM12, 48 h, read-out: Activity
HOP-62 = test: Growth inhibition of human HOP62 cells assessed as cell growth at 10^-4 M incubated for 48 hrs by sulforhodamine B assay relative to control; format: functional; settings: HOP-62, 48 h, read-out: Activity
UO-31 [13] = test: Growth inhibition of human UO31 cells assessed as cell growth at 10^-5 M incubated for 48 hrs by sulforhodamine B assay relative to control; format: functional; settings: UO-31, 48 h, read-out: Activity
[14] = read-out: LC50 (the source's name)
[15] = read-out: pLC50 (the source's name) (converted)

SMILES: CCS/C(Nc1ccccc1)=C(\C#N)C(=O)Nc1ccc(OC)cc1
- GI50 (SNB-19; read-out: GI50): 3.55 µM
- CC50 (SNB-19; [14]): > 100 µM
- TGI (SNB-19; read-out: TGI): > 100 µM
- GI50 (SNB-19; read-out: pGI50 (converted)): 3.55 µM
- CC50 (SNB-19; [15]): > 100 µM
- TGI (SNB-19; read-out: pTGI): > 100 µM
- growth at 0.1 µM (T47D [1]): 89%
- Activity (MDA-MB-435 [2]): Active
- growth at 0.1 µM (NCI-H460): 98%
- growth at 0.1 µM (UO-31 [3]): 91%
- growth at 100 µM (KM12 [4]): 7%
- growth at 1 µM (T47D [5]): 88%
- growth at 10 µM (MDA-MB-468): -9%
- growth at 0.01 µM (SN12C [6]): 97%
- growth at 10 µM (RPMI-8226): 6%
- growth at 0.01 µM (786-0): 97%
- growth at 1 µM (U-251): 94%
- growth at 100 µM (CAKI-1 [7]): 18%
- growth at 1 µM (NCI-H522): 77%
- growth at 100 µM (OVCAR-8): 10%
- growth at 0.01 µM (A549): 95%
- Activity (MDA-MB-435 [8]): 85.55%
- growth at 10 µM (EKVX): 31%
- growth at 10 µM (NCI-H322M): 38%
- growth at 0.01 µM (SF-539): 94%
- growth at 0.1 µM (SNB-75): 84%
- growth at 100 µM (HCT-15): 4%
- growth at 0.1 µM (CAKI-1 [9]): 85%
- GI50 (MCF7; read-out: GI50): 2.71 µM
- CC50 (MCF7; [14]): > 100 µM
- TGI (MCF7; read-out: TGI): > 100 µM
- GI50 (MCF7; read-out: pGI50 (converted)): 2.69 µM
- CC50 (MCF7; [15]): > 100 µM
- TGI (MCF7; read-out: pTGI): > 100 µM
- GI50 (HCC 2998; read-out: GI50): 6.56 µM
- CC50 (HCC 2998; [14]): > 100 µM
- TGI (HCC 2998; read-out: TGI): > 100 µM
- GI50 (HCC 2998; read-out: pGI50 (converted)): 6.61 µM
- CC50 (HCC 2998; [15]): > 100 µM
- TGI (HCC 2998; read-out: pTGI): > 100 µM
- growth at 0.1 µM (RXF 393): 100%
- growth at 0.1 µM (SN12C [10]): 97%
- GI50 (SN12C [11]; read-out: GI50): 5.91 µM
- CC50 (SN12C [11]; [14]): > 100 µM
- TGI (SN12C [11]; read-out: TGI): > 100 µM
- GI50 (SN12C [11]; read-out: pGI50 (converted)): 5.89 µM
- CC50 (SN12C [11]; [15]): > 100 µM
- TGI (SN12C [11]; read-out: pTGI): > 100 µM
- growth at 10 µM (KM12 [12]): 28%
- growth at 100 µM (HOP-62): 37%
- growth at 10 µM (UO-31 [13]): 37%
